We go through one compound from patent US20110104081A1, “Oral Compositions for Treatment of Dry Mouth” (priority 2009, published 2011).

The series is described as follows: Water gain (moisture uptake) of treated cotton swatches. It is filed as physicochemical. To be noted: dried. On the procedure: For table 2, the test method is as follows: For “no rinse”: 1×1 cm cotton swatches (triplicates) are placed into a weigh boat where each is labeled according to treatment type and number. Initial weights are recorded for each sample. 500 uL of polymer solution is applied to each cotton swatch sample then reweighed as wet weight. Samples are allowed to dry overnight at room temperature conditions. Sample weights are recorded in the following morning as “no rinse”. Samples are then placed on a tray in the incubator at 37° C., 3.3% CO2, and approximately 90% humidity (the metal tray at the bottom of the incubator has plenty of distilled water in the pan to ensure constant humidity). Opening and closing the incubator door frequently causes parameters to shift so minimizing this will ensure proper control over parameter. Samples are incubated for 8 hours then reweighed. The weights represent the moisture uptake ability for the treated samples. For “with rinse”: Following the weighing, samples are rinsed for 5 seconds in 500 g of vortexing water, and placed into respective weigh boat. Samples are dried overnight at room temperature conditions. Samples are weighed and placed in the incubator the following morning similar to above described procedure and weights are recorded as “with rinse”.

As to `OCC(O)CO` [40% glycerin, glycerin], the Water gain was found to be 393.3 mg (No Rinse, incubated 8 hours at 37° C., approximately 90% humidity) and 126.9 mg (With Rinse, rinsed with water, incubated).
